Laboratory results reported in a compilation of properties of binary mixtures (doi:10.1021/je060123k).

Assay: xn = mol fraction of the nth substance listed
Settings: 101 kPa

CCCO + CCCCCCCCn1cc[n+](C)c1.[Cl-]
x1 = 1
Settings | speed of sound [m/s] | viscosity [mPa·s]
298.15 K | 1205 | 1.951
313.15 K | 1155 | 1.383
328.15 K | 1105 | 1.007

CCO + CCCCCCCCn1cc[n+](C)c1.[Cl-]
x1 = 1
Settings | speed of sound [m/s] | viscosity [mPa·s]
298.15 K | 1143 | 1.085
313.15 K | 1093 | 0.826
328.15 K | 1043 | 0.641

CO + CCCCCCCCn1cc[n+](C)c1.[Cl-]
x1 = 1
Settings | speed of sound [m/s] | viscosity [mPa·s]
298.15 K | 1103 | 0.543
328.15 K | 1008 | 0.369

CCCCCCCCn1cc[n+](C)c1.[Cl-] + CCCO
Settings | speed of sound, 298.15 K [m/s] | speed of sound, 313.15 K [m/s] | speed of sound, 328.15 K [m/s] | viscosity, 298.15 K [mPa·s] | viscosity, 313.15 K [mPa·s] | viscosity, 328.15 K [mPa·s]
x2 = 0 | – | 1624 | – | – | 4100 | –
x2 = 0.1071 | 1659 | 1584 | – | 7200 | 1720 | –
x2 = 0.2407 | 1593 | 1539 | – | 2056 | 650 | –
x2 = 0.3036 | 1566 | 1517 | – | 910 | 334 | –
x2 = 0.407 | 1531 | – | 1445 | 386 | – | 77.4
x2 = 0.4887 | 1504 | 1461 | 1421 | 179 | 84.1 | 42.7
x2 = 0.6209 | 1456 | 1414 | – | 50.81 | 28.81 | –
x2 = 0.7248 | – | 1369 | – | – | 12.22 | –
x2 = 0.8516 | 1342 | 1296 | 1250 | 6.34 | 4.4 | 3.189
x2 = 0.9024 | – | 1257 | 1211 | – | 3.23 | 2.352
x2 = 0.94 | 1271 | 1223 | – | 3.238 | 2.293 | –
x2 = 0.9729 | 1238 | 1188 | – | 2.648 | 1.878 | –

CCCCCCCCn1cc[n+](C)c1.[Cl-] + CCO
Settings | speed of sound, 298.15 K [m/s] | speed of sound, 313.15 K [m/s] | speed of sound, 328.15 K [m/s] | viscosity, 298.15 K [mPa·s] | viscosity, 313.15 K [mPa·s] | viscosity, 328.15 K [mPa·s]
x2 = 0 | 1721 | 1624 | 1560 | 21000 | 4100 | 1091
x2 = 0.0449 | – | 1606 | – | – | 2717 | –
x2 = 0.1305 | – | 1578 | 1527 | – | 1411 | 481
x2 = 0.2969 | 1579 | 1530 | 1487 | 1127 | 394 | 165
x2 = 0.4753 | 1518 | 1477 | 1438 | 186 | 88 | 45.2
x2 = 0.6858 | 1437 | – | – | 21.26 | – | –
x2 = 0.8809 | 1304 | 1258 | – | 3.5 | 2.601 | –
x2 = 0.917 | 1264 | 1218 | 1175 | 2.551 | 1.919 | 1.488
x2 = 0.955 | 1215 | 1169 | 1122 | 1.754 | 1.341 | 1.038
x2 = 0.9794 | 1179 | – | – | 1.396 | – | –

CCCCCCCCn1cc[n+](C)c1.[Cl-] + CO
Settings | speed of sound, 298.15 K [m/s] | speed of sound, 313.15 K [m/s] | speed of sound, 328.15 K [m/s] | viscosity, 298.15 K [mPa·s] | viscosity, 313.15 K [mPa·s] | viscosity, 328.15 K [mPa·s]
x1 = 0.0197 | – | 1110 | 1070 | – | 0.594 | 0.497
x2 = 0 | 1721 | 1624 | 1560 | 21000 | 4100 | 1091
x2 = 0.0565 | 1683 | 1602 | 1548 | 10400 | 2450 | 760
x2 = 0.1686 | 1638 | 1578 | 1531 | 3500 | 1002 | 365
x2 = 0.2638 | 1608 | 1558 | 1514 | 1489 | 500 | 205
x2 = 0.3525 | – | 1536 | 1496 | – | 212 | 99
x2 = 0.4395 | – | 1518 | – | – | 106.7 | –
x2 = 0.5589 | – | – | 1447 | – | – | 21.44
x2 = 0.7536 | 1447 | 1406 | 1365 | 8.43 | 5.82 | 4.39
x2 = 0.8231 | 1397 | – | – | 4.19 | – | –
x2 = 0.8713 | – | 1304 | 1263 | – | 1.854 | 1.491
x2 = 0.8813 | – | 1292 | 1250 | – | 1.722 | 1.388
x2 = 0.9236 | 1274 | 1229 | 1186 | 1.416 | 1.133 | 0.93
x2 = 0.9436 | 1237 | 1192 | 1147 | 1.135 | 0.914 | 0.754
